# Measured values reported in patent US20260376293A1, “METHODS FOR STUDYING GPR158 PHARMACOLOGY AND IDENTIFICATION OF ITS LIGANDS” (UNIVERSITY OF FLORIDA RESEARCH FOUNDATION, INCORPORATED, priority 2022, published 2026).
# Where two headings read alike, the source gives them in different places.
# Target: T1, GPR158 (Homo sapiens, UniProt Q5T848)
# T1 construct: GPR158 AC2 (1-775) was expressed and purified; Flag; made in house; host or cells: HEK293 GnTI- (BacMam virus)
# T1 sequence (Q5T848 24-775): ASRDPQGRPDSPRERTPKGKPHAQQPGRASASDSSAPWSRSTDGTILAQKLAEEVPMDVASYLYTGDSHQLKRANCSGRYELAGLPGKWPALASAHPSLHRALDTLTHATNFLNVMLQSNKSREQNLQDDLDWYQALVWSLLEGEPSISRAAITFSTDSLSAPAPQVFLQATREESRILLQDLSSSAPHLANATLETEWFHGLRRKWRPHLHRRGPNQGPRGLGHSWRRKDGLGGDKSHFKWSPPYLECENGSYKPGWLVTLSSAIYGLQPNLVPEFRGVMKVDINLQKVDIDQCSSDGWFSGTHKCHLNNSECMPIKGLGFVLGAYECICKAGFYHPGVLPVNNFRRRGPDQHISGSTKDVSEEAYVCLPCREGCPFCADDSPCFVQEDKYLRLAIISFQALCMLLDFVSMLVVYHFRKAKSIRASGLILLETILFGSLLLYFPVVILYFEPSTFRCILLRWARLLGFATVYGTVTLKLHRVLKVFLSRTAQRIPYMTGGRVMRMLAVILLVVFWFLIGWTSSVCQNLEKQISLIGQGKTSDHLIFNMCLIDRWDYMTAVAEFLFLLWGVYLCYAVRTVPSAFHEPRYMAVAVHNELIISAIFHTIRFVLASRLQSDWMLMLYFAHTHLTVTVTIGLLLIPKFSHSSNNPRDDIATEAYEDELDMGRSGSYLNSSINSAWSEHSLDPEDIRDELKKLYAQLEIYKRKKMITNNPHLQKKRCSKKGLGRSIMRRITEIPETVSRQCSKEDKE
# Assay: Isothermal Titration calorimetry (ITC) with purified GPR158
# Assay type: binding
# Settings: purified GPR158-AC2, 23 °C
# Method: FIGS. 9A-9H. Direct interaction of glycine with GPR158 A) Schematics of assay design for detecting glycine binding to GPR158 by flow cytometry. Cells transfected with GPR158 are incubated with FITC-glycine and fluorescence labeling of cells is detected by flow cytometry. B) Representative flow cytometry histogram showing distribution of cellular populations after sorting. C) Quantification of FITC-glycine binding detected in flow cytometry binding experiments. The median of fluorescence (MFI) is quantified and plotted. Error bars are s.e.m. values, N=3, **p<0.01, ****p<0.0001, two-way ANOVA. D) Schematics of the radioligand binding assay. E) Quantification of ^3H-glycine binding to membrane expressing GPR158. Count Per minute (CPM) are measured and plotted. Data shown mean of 4 independent experiments error bars are s.e.m. values, n=4. […] Data shown mean of 4 independent experiments error bars are s.e.m. values, n=4. G) Schematics of the assay design detecting glycine binding to GPR158 by Isothermal Titration calorimetry (ITC) with purified protein. H) Representative ITC binding profile showing glycine binding to GPR158. Control (thick line), GPR158 (thin line) I) Quantification of binding determined by fitting the integrated isotherm to an independent binding model.
# FIGS. 10A-10D. Binding of Glycine to GPR158 in ITC experiments. […]
smiles,measurement,setting,value
NCC(=O)O [glycine],Kd,"mean of 4 experimental runs, independent binding model, read-out: KD (ITC, mean)",7.76 ± 3.66 µM
same,Kd,"range across experiments, read-out: binding constants (KD) across experiments",2 to 16 µM
